According to US20110110860A1, “MODULATION OF LDL RECEPTOR GENE EXPRESSION WITH DOUBLE-STRANDED RNAS TARGETING THE LDL RECEPTOR GENE PROMOTER” (The Board of Regents of the University of Texas System, priority 2009, published 2011):

Experiments:
LDLR [1] = assay: Combination treatment with 25-hydroxycholesterol and agRNAs (western, HepG2); format: cell-based, human; conditions: 25-hydroxycholesterol 2 μM
Experimental: (§1) Analysis of LDLR protein expression. Cells were harvested 4 days after transfection for western blotting analysis. Cells were detached from plates using cell dissociation solution (Sigma) and lysed with lysis buffer (50 mM Tris-HCl, 120 mM NaCl, 0.5% NP-40, 1 mM EDTA, 1 mM DTT, and protease inhibitor (Calbiochem)). Protein concentrations were quantified with BCA assay kit (Thermo Scientific). SDS-PAGE was performed using 7.5% Tris-HCl gels (Bio-Rad). Gels were run at 100 V for 60 min. After gel electrophoresis, proteins were transferred to nitrocellulose membrane (Hybond-C-Extra; GE Healthcare) at 100 V for 2 h. After blocking the membrane with 5% non-fat dry milk/TBST at room temperature for 1 h, the membrane was incubated with primary antibody specific for LDLR or β-actin at the following dilution ratio: anti-LDLR antibody (ab52818; 1:10,000; abcam), anti-β-actin antibody (1:20,000; Sigma). HRP-conjugated anti-rabbit (1:10,000; Jackson ImmunoResearch) or anti-mouse (1:20,000; Sigma) secondary antibody was used for visualizing proteins using SuperSignal West Pico Chemiluminescent Substrate (Thermo Scientific). Protein bands were quantified using ImageJ software.
Combination treatment with 25-hydroxycholesterol and agRNAs. dsRNAs (50 nM) were transfected into HepG2 cells as described above (Day 0), and the media were exchanged one day later. […]

LDLR [2] = assay: Western analysis of LDLR protein expression in HepG2 cells after transfection of duplex RNAs; format: cell-based, human; conditions: for effect on LDLR expression (in words): 50 nM, western analysis
Experimental: Cell culture and transfection. Unmodified, 2′-O-methyl, and 2′-fluoro RNAs with two 2′-deoxythymidine bases at the 3′ end were obtained from Integrated DNA Technologies or Alnylam Pharmaceuticals. HepG2 (American Type Culture Collection (ATCC)) and fibroblast cells (GM04281; Coriell) were cultured with Minimum Essential Medium Eagle (MEM; Sigma) supplemented with 10% FBS, 1% MEM non-essential amino acids (Sigma), and 1 mM sodium pyruvate (Sigma). HuH-7 (Japanese Collection of Research Bioresources) and SW480 cells (ATCC) were cultured with Dulbecco's Modified Eagle's Medium (Sigma) supplemented with 10% FBS and 1 mM sodium pyruvate. Cells were plated in 6-well plates at 120,000 (HepG2 and HuH-7), 60,000 (fibroblast), or 150,000 (SW480) cells/well 2 days before transfection. Duplex RNAs were transfected into cells using Lipofectamine RNAiMAX (Invitrogen). Cationic lipid (2.4 μL for 50 nM dsRNA) was added to OptiMEM (Invitrogen) containing oligonucleotides and the oligonucleotide-lipid mixture (250 μL) was incubated at room temperature for 20 min. OptiMEM (for HepG2 and fibroblast) or full media (for HuH-7 and SW480) was added to a final volume of 1.25 mL and the mixture was applied to cells. Media was exchanged 1 day later with fresh supplemented media (2 mL).
as §1
(§2) Analysis of Interferon Responsive Genes. mRNA levels of the interferon responsive genes including OAST, OAS2, MX1, IFITM1, and ISGF3γ were measured by qRT-PCR. agRNAs (50 nM) and Poly I:C (0-100 ng/mL; Sigma) were transfected into HepG2 cells using the cationic lipid as described above. Three days after transfection, total RNAs from dsRNA-treated, poly I:C-treated, or untreated samples were isolated using TRIzol. The RNAs were treated with DNase I at 25° C. for 10 min, followed by reverse transcription reaction at 37° C. for 2 h. qPCR was performed using iTaq SYBR Supermix and primers specific for the interferon responsive genes (Interferon Response Detection Kit; System Biosciences). LDLR protein levels on Day 4 were also measured by western blot analysis.

AGO2 = target: T1, AGO2 (Homo sapiens, UniProt Q9UKV8); assay: RNA immunoprecipitation (RIP) of AGO2 on the LDLR antisense transcript; format: cell-based; conditions: 50 nM, HepG2 cells
T1 construct: endogenous in cells; host or cells: HepG2
Experimental: Chromatin Immunoprecipitation (ChIP)/RNA Immunoprecipitation (RIP). HepG2 cells were seeded at 1,080,000 cells in 15 cm dishes 2 days before transfection for ChIP or RIP experiments. Two dishes were treated with activating agRNAs (LDLR-24(U/U) and LDLR-28(U/U)) or mismatch controls (LDLRmm1, LDLRmm3, and LDLRmm4) (50 nM). Four days after transfection, cells were crosslinked with 1% formaldehyde. Cells were recovered by scraping and nuclei were isolated using hypotonic lysis buffer (5 mL; 10 mM Tris-HCl (pH 7.5), 10 mM NaCl, 3 mM MgCl2, 0.5% NP-40). Nuclei were lysed in lysis buffer (1 mL; 1% SDS, 10 mM EDTA, 50 mM Tris-HCl (pH 8.1), 1× Roche protease inhibitors cocktail, 40 U/mL RNasin Plus RNase Inhibitor (Promega)) and sonicated (2 pulses, 20% power, 20 sec).
The cell lysate (100 μL) was incubated overnight with antibodies in immunoprecipitation buffer (1 mL; 0.01% SDS, 1.1% Triton-X-100, 1.2 mM EDTA, 16.7 mM Tris-HCl (pH 8.1), 167 mM NaCl, and 1× Roche protease inhibitors cocktail, 40 U/mL RNasin Plus RNase Inhibitor). Monoclonal anti-RNAP II (2 μg; Millipore) and polyclonal anti-H3K27me3 (2 μg; Millipore) antibodies were used for ChIP experiments. Polyclonal anti-AGO1 (2 μg; Millipore) and polyclonal anti-AGO2 (2 μg; Millipore) antibodies were used for RIP experiments. […] PCR products were analyzed on 2.5% agarose gel and stained with ethidium bromide.

[3] = tested on: interferon responsive genes (OAST, OAS2, MX1, IFITM1, ISGF3γ); assay: Analysis of interferon responsive genes by qRT-PCR in HepG2 cells; format: cell-based, human; conditions: agRNAs 50 nM, poly I:C 0-100 ng/mL, HepG2, three days after transfection
Experimental: as §2

T1 sequence (Q9UKV8 whole entry): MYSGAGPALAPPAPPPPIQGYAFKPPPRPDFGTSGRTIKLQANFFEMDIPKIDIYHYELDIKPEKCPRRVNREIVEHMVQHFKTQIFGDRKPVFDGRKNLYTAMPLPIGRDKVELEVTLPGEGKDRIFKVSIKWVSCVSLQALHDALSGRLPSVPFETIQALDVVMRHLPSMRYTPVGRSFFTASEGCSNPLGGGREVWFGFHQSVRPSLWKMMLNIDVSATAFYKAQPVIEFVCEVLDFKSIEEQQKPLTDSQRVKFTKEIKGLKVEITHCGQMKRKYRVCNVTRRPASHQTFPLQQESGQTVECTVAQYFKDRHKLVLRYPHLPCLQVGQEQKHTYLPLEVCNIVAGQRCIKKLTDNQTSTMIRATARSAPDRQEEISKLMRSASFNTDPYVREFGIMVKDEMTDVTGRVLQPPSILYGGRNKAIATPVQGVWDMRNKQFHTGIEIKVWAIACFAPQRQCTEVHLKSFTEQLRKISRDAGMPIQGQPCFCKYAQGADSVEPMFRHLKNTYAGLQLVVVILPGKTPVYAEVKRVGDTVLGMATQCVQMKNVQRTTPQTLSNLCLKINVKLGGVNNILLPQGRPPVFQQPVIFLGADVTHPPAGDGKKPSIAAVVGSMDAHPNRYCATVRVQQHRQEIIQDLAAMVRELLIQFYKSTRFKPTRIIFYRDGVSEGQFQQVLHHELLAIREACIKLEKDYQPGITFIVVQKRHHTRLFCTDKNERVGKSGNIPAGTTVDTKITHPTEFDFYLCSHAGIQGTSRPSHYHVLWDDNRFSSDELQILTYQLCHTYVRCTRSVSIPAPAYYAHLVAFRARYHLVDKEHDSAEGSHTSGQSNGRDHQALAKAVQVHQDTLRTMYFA

C[C@H](CCCC(C)(C)O)[C@H]1CC[C@H]2[C@@H]3CC=C4C[C@@H](O)CC[C@]4(C)[C@H]3CC[C@]12C [25-hydroxycholesterol] was tested, and the “baseline LDLR expression with 25-hydroxycholesterol alone” value (LDLR [1]) was “lowers baseline LDLR expression”.

“LDLR-18: agRNA duplex; sense AAAUGACGUGGGCCCCGAGdTdT, antisense CUCGGGGCCCACGUCAUUUdTdT (sense AAAUGACGUGGGCCCCGAGDTDT; antisense CUCGGGGCCCACGUCAUUUDTDT; chemistry not fully specified)” was tested, and the “effect on LDLR expression (in words)” value (LDLR [2]) was “appeared to reduce gene expression”.

With “LDLR-35: agRNA duplex; sense UCACAUUGAAAUGCUGUAAdTdT, antisense UUACAGCAUUUCAAUGUGAdTdT (sense UCACAUUGAAAUGCUGUAADTDT; antisense UUACAGCAUUUCAAUGUGADTDT; chemistry not fully specified)” the “effect on LDLR expression (in words)” value (LDLR [2]) was “appeared to reduce gene expression”.

In the case of “LDLR-65: agRNA duplex; sense CACUGCAAACUCCUCCCCCdTdT, antisense GGGGGAGGAGUUUGCAGUGdTdT (sense CACUGCAAACUCCUCCCCCDTDT; antisense GGGGGAGGAGUUUGCAGUGDTDT; chemistry not fully specified)”, the “effect on LDLR expression (in words)” value (LDLR [2]) is reported as “appeared to reduce gene expression”.

In the case of “LDLRmm3: mismatch duplex disrupting predicted seed sequence; sense UCCAGAAAAUGACGUGGGCdTdT, antisense GCCCACGUCAUUUUCUGGAdTdT (sense UCCAGAAAAUGACGUGGGCDTDT; antisense GCCCACGUCAUUUUCUGGADTDT; chemistry not fully specified)”, the “recruitment of AGO2 to the LDLR antisense transcript” value (AGO2) is reported as “not”.

In the case of “LDLRmm4: mismatch duplex, three mismatches outside seed sequence; sense UGCUGUAAAUGAGGAGCGCdTdT, antisense GCGCUCCUCAUUUACAGCAdTdT (sense UGCUGUAAAUGAGGAGCGCDTDT; antisense GCGCUCCUCAUUUACAGCADTDT; chemistry not fully specified)”, the “effect on LDLR expression (in words)” value (LDLR [2]) is reported as “activation” and the “recruitment of AGO2 to the LDLR antisense transcript” value (AGO2) is reported as “recruitment of AGO2”.

In the case of “polyinosinic-polycytidylic acid [poly I:C]”, the “effect of poly I:C on LDLR expression” value (LDLR [2]; any concentrations tested (0-100 ng/mL), Day 4 western) is reported as “did not upregulate LDLR expression” and the “interferon-responsive gene expression (OAST, OAS2, MX1, IFITM1, ISGF3γ)” value [3] is reported as “substantially increases”.
